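1) Cells in 96-well plates. 2) Compound, 48 h, 5 concentrations. 3) Linear interpolation between surrounding doses. 4) Unreached endpoint = highest concentration. At the GI50, growth is halved. TGI is the concentration that stops growth completely.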
Tests used:
Experiment in all cases: growth of human tumour cells (NCI), 48 h
[1] = test system: OVCAR-4 ovarian
[2] = test system: MCF7 breast
[3] = test system: HS 578T breast
[4] = test system: MDA-MB-231 breast
[5] = test system: HOP-62 NSCLC
[6] = test system: HCC-2998 colon
[7] = test system: SF-539 CNS
[8] = test system: EKVX NSCLC
[9] = test system: BT-549 breast
[10] = test system: SK-OV-3 ovarian
[11] = test system: UO-31 renal
[12] = test system: HCT-116 colon
[13] = test system: UACC-257 melanoma
[14] = test system: T-47D breast
[15] = test system: CAKI-1 renal
[16] = test system: NCI-H460 lung
[17] = test system: UACC-62 melanoma
[18] = test system: SK-MEL-2 melanoma
[19] = test system: OVCAR-8 ovarian
[20] = test system: SW-620 colon
[21] = test system: NCI-H522 lung
[22] = test system: SF-268 CNS
[23] = test system: OVCAR-3 ovarian
[24] = test system: SR leukemia
[25] = test system: U251 CNS
[26] = test system: 786-0 renal
[27] = test system: A498 renal
[28] = test system: HT29 colon
[29] = test system: NCI-H23 lung
[30] = test system: HCT-15 colon
[31] = test system: HL-60(TB) leukemia
[32] = test system: MOLT-4 leukemia
[33] = test system: SK-MEL-5 melanoma
[34] = test system: ACHN renal
[35] = test system: NCI-H226 lung
[36] = test system: K-562 leukemia
[37] = test system: DU-145 prostate
[38] = test system: HOP-92 NSCLC
[39] = test system: SNB-19 CNS
[40] = test system: SN12C renal
[41] = test system: RPMI-8226 leukemia
[42] = test system: CCRF-CEM leukemia
[43] = test system: KM12 colon
[44] = test system: A549 NSCLC
[45] = test system: COLO 205 colon
[46] = test system: RXF 393 renal
[47] = test system: LOX IMVI melanoma
[48] = test system: M14 melanoma
[49] = test system: IGROV1 ovarian
[50] = test system: SNB-75 CNS
[51] = test system: SK-MEL-28 melanoma
[52] = test system: OVCAR-5 ovarian
[53] = test system: SF-295 CNS
[54] = test system: NCI/ADR-RES ovarian
[55] = test system: PC-3 prostate
[56] = test system: MDA-MB-435
[57] = test system: TK-10 renal
[58] = test system: MALME-3M melanoma

COc1cc(/C=C/C(=O)c2cc(OC)c(OC)c(OC)c2)ccc1Oc1nc2c(c(=O)n(C)c(=O)n2C)n1C
GI50 [1]: 2.49 µM | TGI [1]: > 100 µM | GI50 [2]: 2.2 µM | TGI [2]: 27.6 µM | GI50 [3]: 7.93 µM | TGI [3]: > 100 µM | GI50 [4]: 2.55 µM | TGI [4]: 20.3 µM | GI50 [5]: 2.63 µM | TGI [5]: 5.89 µM | GI50 [6]: 1.84 µM | TGI [6]: 3.35 µM | GI50 [7]: 2.73 µM | TGI [7]: 7.74 µM | GI50 [8]: 26.5 µM | TGI [8]: > 100 µM | GI50 [9]: 1.56 µM | TGI [9]: 3.02 µM | GI50 [10]: 3.73 µM | TGI [10]: 35.5 µM | GI50 [11]: 1.6 µM | TGI [11]: 3.1 µM | GI50 [12]: 0.684 µM | TGI [12]: 2.06 µM | GI50 [13]: 2.05 µM | TGI [13]: 4.63 µM | GI50 [14]: 4.39 µM | TGI [14]: 65.4 µM | GI50 [15]: 2.22 µM | TGI [15]: 7.92 µM | GI50 [16]: 2.24 µM | TGI [16]: 6.37 µM | GI50 [17]: 1.81 µM | TGI [17]: 3.61 µM | GI50 [18]: 3.35 µM | TGI [18]: 7.78 µM | GI50 [19]: 1.73 µM | TGI [19]: 5.2 µM | GI50 [20]: 1.6 µM | TGI [20]: 3.46 µM | GI50 [21]: 1.43 µM | TGI [21]: 2.81 µM | GI50 [22]: 3.29 µM | TGI [22]: 10.2 µM | GI50 [23]: 2.37 µM | TGI [23]: 4.88 µM | GI50 [24]: 1.21 µM | TGI [24]: 4.89 µM | GI50 [25]: 1.28 µM | TGI [25]: 2.6 µM | GI50 [26]: 1.63 µM | TGI [26]: 3.26 µM | GI50 [27]: 2.51 µM | TGI [27]: 10.2 µM | GI50 [28]: 1.87 µM | TGI [28]: 3.9 µM | GI50 [29]: 1.85 µM | TGI [29]: 4.27 µM | GI50 [30]: 2.56 µM | TGI [30]: > 100 µM | GI50 [31]: 2.17 µM | TGI [31]: 5.32 µM | GI50 [32]: 2.29 µM | TGI [32]: 6.34 µM | GI50 [33]: 1.75 µM | TGI [33]: 3.33 µM | GI50 [34]: 2.93 µM | TGI [34]: 8.06 µM | GI50 [35]: 2.98 µM | TGI [35]: 8.43 µM | GI50 [36]: 2.29 µM | TGI [36]: 8.23 µM | GI50 [37]: 3.92 µM | TGI [37]: 15.5 µM | GI50 [38]: 2.09 µM | TGI [38]: 5.84 µM | GI50 [39]: 2.71 µM | TGI [39]: 13.5 µM | GI50 [40]: 2.24 µM | TGI [40]: 7.79 µM | GI50 [41]: 1.2 µM | TGI [41]: 4.91 µM | GI50 [42]: 1.97 µM | TGI [42]: 6.48 µM | GI50 [43]: 1.62 µM | TGI [43]: 3.16 µM | GI50 [44]: 2.2 µM | TGI [44]: 6.52 µM | GI50 [45]: 1.91 µM | TGI [45]: 3.62 µM | GI50 [46]: 2.03 µM | TGI [46]: 3.65 µM | GI50 [47]: 1.14 µM | TGI [47]: 2.64 µM | GI50 [48]: 1.87 µM | TGI [48]: 4.55 µM | GI50 [49]: 2.5 µM | TGI [49]: 5.35 µM | GI50 [50]: 1.77 µM | TGI [50]: 7.81 µM | GI50 [51]: 2.57 µM | TGI [51]: 7.03 µM | GI50 [52]: 2.9 µM | TGI [52]: 7.41 µM | GI50 [53]: 2.65 µM | TGI [53]: 13 µM | GI50 [54]: 2.96 µM | TGI [54]: > 100 µM

COc1ccc2c(c1)CC1Cc3cc(OC)c(OC)cc3CN1CC2 (configuration not stated)
TGI [1]: > 100 µM | TGI [3]: > 100 µM | TGI [4]: > 100 µM | TGI [55]: > 100 µM | TGI [5]: > 100 µM | TGI [6]: > 100 µM | TGI [8]: > 100 µM | TGI [9]: > 100 µM | TGI [10]: > 100 µM | TGI [11]: > 100 µM | TGI [12]: > 100 µM | TGI [13]: > 100 µM | TGI [14]: > 100 µM | TGI [15]: > 100 µM | TGI [16]: > 100 µM | TGI [17]: > 100 µM | TGI [18]: > 100 µM | TGI [19]: > 100 µM | TGI [20]: > 100 µM | TGI [21]: > 100 µM | TGI [22]: > 100 µM | TGI [23]: > 100 µM | TGI [24]: 60.3 µM | TGI [25]: > 100 µM | TGI [26]: > 100 µM | TGI [27]: > 100 µM | TGI [56]: > 100 µM | TGI [28]: > 100 µM | TGI [29]: > 100 µM | TGI [30]: > 100 µM | TGI [31]: 34.3 µM | TGI [32]: > 100 µM | TGI [33]: > 100 µM | TGI [34]: > 100 µM | TGI [35]: > 100 µM | TGI [36]: > 100 µM | TGI [37]: > 100 µM | TGI [38]: 67.2 µM | TGI [39]: > 100 µM | TGI [41]: > 100 µM | TGI [42]: 89 µM | TGI [43]: > 100 µM | TGI [44]: > 100 µM | TGI [45]: > 100 µM | TGI [46]: > 100 µM | TGI [47]: > 100 µM | TGI [48]: > 100 µM | TGI [57]: > 100 µM | TGI [58]: > 100 µM | TGI [49]: > 100 µM | TGI [50]: > 100 µM | TGI [51]: > 100 µM | TGI [52]: > 100 µM | TGI [53]: > 100 µM | TGI [54]: > 100 µM

Nc1nc(-c2cccc3ccccc23)cc2ccccc12
GI50 [1]: 1.6 µM | TGI [1]: 24.4 µM | GI50 [2]: 0.108 µM | TGI [2]: 13.1 µM | GI50 [3]: 0.245 µM | TGI [3]: 3.91 µM | GI50 [4]: 0.712 µM | TGI [4]: 13.4 µM | GI50 [55]: 0.257 µM | TGI [55]: 4.08 µM | GI50 [5]: 1 µM | TGI [5]: 17.6 µM | GI50 [6]: 0.231 µM | TGI [6]: 1.12 µM | GI50 [7]: 0.291 µM | TGI [7]: 1.69 µM | GI50 [8]: 1.29 µM | TGI [8]: > 40.4 µM | GI50 [9]: 13.2 µM | TGI [9]: 27.9 µM | GI50 [10]: 0.466 µM | TGI [10]: 13.9 µM | GI50 [11]: 1.17 µM | TGI [11]: 9.68 µM | GI50 [12]: 0.342 µM | TGI [12]: 13.4 µM | GI50 [13]: 0.196 µM | TGI [13]: 16 µM | GI50 [14]: 0.359 µM | TGI [14]: 33.9 µM | GI50 [15]: 0.46 µM | TGI [15]: 19.6 µM | GI50 [16]: 0.332 µM | TGI [16]: 10.6 µM | GI50 [17]: 0.521 µM | TGI [17]: 14.6 µM | GI50 [18]: 0.647 µM | TGI [18]: 22.3 µM | GI50 [19]: 0.577 µM | TGI [19]: 17.8 µM | GI50 [20]: 0.314 µM | TGI [20]: 20 µM | GI50 [21]: 0.324 µM | TGI [21]: 2.85 µM | GI50 [22]: 0.53 µM | TGI [22]: 10.8 µM | GI50 [23]: 0.343 µM | TGI [23]: 10.4 µM | TGI [24]: > 44.2 µM | GI50 [25]: 0.494 µM | TGI [25]: 13.2 µM | GI50 [26]: 0.503 µM | TGI [26]: 13.4 µM | GI50 [27]: 0.351 µM | TGI [27]: 3.96 µM | GI50 [28]: 0.358 µM | TGI [28]: 12.9 µM | GI50 [29]: 0.732 µM | TGI [29]: 24.1 µM | GI50 [30]: 0.409 µM | TGI [30]: 12.6 µM | GI50 [31]: 0.232 µM | TGI [31]: > 100 µM | GI50 [32]: 0.638 µM | TGI [32]: > 54.2 µM | GI50 [33]: 0.287 µM | TGI [33]: 10.3 µM | GI50 [34]: 1.1 µM | TGI [34]: 18.3 µM | GI50 [35]: 1.12 µM | TGI [35]: 15.9 µM | GI50 [36]: 4.81 µM | TGI [36]: > 100 µM | GI50 [37]: 0.377 µM | TGI [37]: 2.98 µM | GI50 [38]: 1.63 µM | TGI [38]: 11.9 µM | GI50 [39]: 0.514 µM | TGI [39]: 13.4 µM | GI50 [40]: 0.789 µM | TGI [40]: 16 µM | GI50 [41]: 0.214 µM | TGI [41]: 0.573 µM | GI50 [42]: 0.234 µM | TGI [42]: 3.17 µM | GI50 [43]: 0.386 µM | TGI [43]: 9.7 µM | GI50 [44]: 0.476 µM | TGI [44]: 14.9 µM | GI50 [45]: 0.332 µM | TGI [45]: 1.9 µM | GI50 [47]: 0.777 µM | TGI [47]: 14.2 µM | GI50 [48]: 0.549 µM | TGI [48]: 12.4 µM | GI50 [57]: 6.3 µM | TGI [57]: 29.4 µM | GI50 [49]: 0.444 µM | TGI [49]: 5.44 µM | GI50 [50]: 0.206 µM | TGI [50]: 3.8 µM | GI50 [51]: 0.563 µM | TGI [51]: 24 µM | GI50 [52]: 1.25 µM | TGI [52]: 19.7 µM | GI50 [53]: 0.278 µM | TGI [53]: 13.8 µM | GI50 [54]: 0.463 µM | TGI [54]: 22.1 µM
